According to patent US20240335431A1, “1-H-PYRROLO[2,3-c]PYRIDINE COMPOUNDS” (Acerta Pharma B.V., priority 2023, published 2024):

Key:
[1] = test system: MOLM-13 cells; assay: Cell death in MOLM-13 cell line, Compound 56-2 with BCL2 inhibitor venetoclax (CellTiter-Glo, 4 days); format: cell-based, human
Description: Test compound was dispensed using a Tecan compound dispenser into 384-well plates (Microplate 384-well, polypropylene, F-bottom; Greiner Bio-One, #781201) in a ten-by-ten response matrix to assess the combination effects of Menin inhibition (Compound 56-2) together with BCL-2 inhibition (venetoclax) at the following concentrations after subsequent cell seeding in 40 μL of growth media: 10 μM, 3.16 μM, 1 μM, 0.316 μM, 0.1 μM, 0.0316 μM, 0.01 μM, 0.00316 μM, […], and vehicle (DMSO; Sigma-Aldrich, D2650). Cells were seeded at 1000 cells per well and incubated at 37° C. and 5% CO2. MOLM-13 cells were grown in RPM1 1640 (Gibco, #21875091) supplemented with 10% FBS (Gibco; #10091-148) and 1% Pen/Strep (Gibco; #15140-122). After 4 days of compound treatment, plates were placed at room temperature for 15 minutes. 10 μL CellTiter-Glo reagent (Promega, #G9242) was added to the cells and incubated for 10 minutes in the dark on a plate shaker at room temperature. A backseal (Perkin Elmer; #6005199) was added to the plates and luminescence was measured at 0.1 sec/well in an Envision (Perkin Elmer). Data were normalized for each plate so that the average of control wells (DMSO) was set to 0%, and the maximum observed value across the plate was set as 100%. Data fitting was performed using Graphpad Prism and combination effect was assessed using SynergyFinder.

[2] = test system: DFAL-49600; assay: MLLr AML patient derived disseminated xenograft model DFAL-49600; format: in vivo, female NSG mice; details: 150 mg/kg oral twice daily, 21 days
Description: Viably frozen A. CBAM-68552, B. CBAM-44728, and C. DFAL-49600 single cell suspensions from spleens of donor mice were prepared into frozen stock. Flow cytometry antibodies for Ter119 (Miltenyi 130-112-914), mouse CD45 (Miltenyi 130-110-665), and human CD45 (Miltenyi 130-110-634) and Fixable Live Dead Stain (ThermoFisher; #L34963) for disease evaluation via flow cytometry on MACSQuant (Miltenyi). Compound 56-2 was formulated in water at pH 4.5-5 using 1M MSA as pH-adjusting agent at concentrations up to 100 mg/mL to achieve a uniform suspension and dosed twice daily by oral gavage 10 mL/kg.
A. CBAM-68552, B. CBAM-44728, and C. DFAL-49600 cells were thawed and 1 million cells implanted via the tail vein in to female NSG mice. Mice were randomized into groups of 5 when human CD45 levels reached average of A. CBAM-68552 6.5%, B. CBAM-44728 4.8%, and C. DFAL-49600 12.4% in the bone marrow of satellite animals. Mice were treated for 21 days with vehicle (water at pH 4.5-5 using 1 M MSA) or Compound 56-2 at 150 mg/kg. Compound 56-2 was dosed orally twice daily 8/16 hours apart and mice were monitored for overall survival. FIGS. 3-A, 3-B, and 3-C further illustrate the effect of treatment with Compound 56-2 in human MLLr AML Patient Derived Disseminated Xenograft Models A. CBAM-68552, B. CBAM-44728, and C. DFAL-49600, respectively.

[3] = target: Menin protein (Homo sapiens (Human), UniProt O00255); assay: Menin protein degradation in MV-4-11 SILAC cells (pulse SILAC, PRM); format: cell-based; details: 300 nM
Description: An MV-4-11 cell line was passaged at least eight times in SILAC-IMDM (ThermoFisher, #88367), which lacks L-lysine and L-arginine, and supplemented with 10% (v/v) dialyzed FBS (ThermoFisher, #A3382001), [^13C6, ^15N2]-L-lysine, and [^13C6, ^15N4]-L-arginine (Sigma #608041 and #608033) (100 μg/mL each) to achieve “heavy cell” status as determined by LC-MS/MS. Whenever thawed, the “heavy-labelled” cells were passaged at least three times before use in experiments. “Light” medium was prepared by supplementing SILAC-IMDM with 10% (v/v) dialyzed FBS and unlabeled L-arginine and L-lysine (Sigma, #A6969, #L8662). SILAC-IMDM was either supplemented with 300 nM of Compound 56-2 (10 mM solution in DMSO) or the equivalent amounts of DMSO as control. Cells were transferred to “light” media, incubated at 37° C., 5% CO2, and collected at various time points (0 hrs, 1 hrs, 2 hrs, 4.25 hrs, 10.25 hrs, 20.75 hrs, 28.5 hrs, 47 hrs, 72 hrs) by two washes with ice cold PBS and pelleted by centrifugation.
Cell pellets (approximately 2×10^5 cells) were transferred to 96-well plate using cell lysis buffer (4% SDS, 50 mM HEPES pH 7.4, 5 mM TCEP, and 10 mM chloroacetamide) and heated to 95° C. for 10 minutes. […] The PRM data were analyzed with Skyline (University of Washington, Seattle, WA., Ref.) using high-selectivity data extraction. […]

Chain of Menin protein (O00255 whole entry): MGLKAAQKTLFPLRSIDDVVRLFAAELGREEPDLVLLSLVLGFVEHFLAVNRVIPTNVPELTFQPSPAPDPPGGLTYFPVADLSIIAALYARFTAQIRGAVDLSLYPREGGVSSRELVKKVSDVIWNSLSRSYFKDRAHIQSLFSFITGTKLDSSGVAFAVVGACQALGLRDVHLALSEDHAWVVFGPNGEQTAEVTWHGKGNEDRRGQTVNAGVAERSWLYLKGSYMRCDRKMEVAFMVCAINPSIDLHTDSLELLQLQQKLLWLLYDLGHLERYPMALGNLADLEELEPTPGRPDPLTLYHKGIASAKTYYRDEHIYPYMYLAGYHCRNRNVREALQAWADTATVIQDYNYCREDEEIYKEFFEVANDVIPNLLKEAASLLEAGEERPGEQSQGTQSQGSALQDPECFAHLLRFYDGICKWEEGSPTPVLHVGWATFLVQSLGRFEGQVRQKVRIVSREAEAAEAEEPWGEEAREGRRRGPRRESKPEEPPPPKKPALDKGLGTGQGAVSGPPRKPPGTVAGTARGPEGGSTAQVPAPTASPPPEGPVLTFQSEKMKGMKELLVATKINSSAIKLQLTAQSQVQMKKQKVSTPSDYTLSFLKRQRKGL

Cc1c(C(=O)C2CCN(C(=O)[C@@H]3CCC(C)(C)N3)CC2)c2ccncc2n1-c1ccc(F)cc1C(=O)N(C(C)C)C(C)C (single isomer, unassigned) [Compound 56-2]
cell viability as monotherapy (in words) [1]: cell viability loss was induced | LATENCY (overall survival) [2]: 161 days | kdeg (rate of degradation of heavy Menin protein) [3]: 3.89e-05 s⁻¹
